Activity calls are given as the source filed them. The calls are words filed in the database; no cut-off is given here.
Legend:
[1] = molecular target: T1, Sodium/glucose cotransporter 2 (Homo sapiens, UniProt P31639); test: Inhibition of human SGLT2 expressed in CHO-K1 cells assessed as reduction in [14C]AMG uptake after 120 mins by scintillation counting method; format: cell-based
T1 sequence (P31639 whole entry): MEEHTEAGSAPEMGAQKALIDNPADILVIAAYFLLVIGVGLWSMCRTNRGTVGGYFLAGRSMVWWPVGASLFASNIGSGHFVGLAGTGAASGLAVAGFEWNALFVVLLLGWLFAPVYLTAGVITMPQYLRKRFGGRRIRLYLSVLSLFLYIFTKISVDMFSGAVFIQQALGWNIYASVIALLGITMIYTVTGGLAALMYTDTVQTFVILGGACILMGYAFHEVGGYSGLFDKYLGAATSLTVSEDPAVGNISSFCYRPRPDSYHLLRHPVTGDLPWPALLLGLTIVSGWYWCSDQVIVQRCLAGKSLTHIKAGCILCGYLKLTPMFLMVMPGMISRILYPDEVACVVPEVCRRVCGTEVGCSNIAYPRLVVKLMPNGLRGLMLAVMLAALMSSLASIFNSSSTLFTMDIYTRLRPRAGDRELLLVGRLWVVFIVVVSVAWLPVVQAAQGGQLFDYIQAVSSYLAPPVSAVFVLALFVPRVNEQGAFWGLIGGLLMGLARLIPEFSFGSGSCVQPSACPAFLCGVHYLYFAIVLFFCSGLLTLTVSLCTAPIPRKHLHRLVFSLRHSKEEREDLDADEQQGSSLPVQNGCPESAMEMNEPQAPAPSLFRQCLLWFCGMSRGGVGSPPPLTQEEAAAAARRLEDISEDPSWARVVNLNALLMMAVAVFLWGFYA

Rattus norvegicus [2] = test: Induction of glucosuria in Sprague-Dawley rat assessed as increase in glucose excretion at 50 mg/kg administered as single dose via oral gavage after 24 hrs by oral glucose tolerance test; format: functional, organism-based
CHO-K1 = test: Selectivity ratio of EC50 for human SGLT1 expressed in CHO-K1 cells to EC50 for human SGLT2 expressed in CHO-K1 cells; format: cell-based
[3] = Half life in Sprague-Dawley rat at 1.1 mg/kg, iv administered via bolus injection by LC-MS/MS analysis; format: ADME, organism-based; settings: in vivo
[4] = Volume of distribution at steady state in Sprague-Dawley rat at 1.1 mg/kg, iv administered via bolus injection measured at 2 to 5 mins post dose by LC-MS/MS analysis; format: ADME, organism-based; settings: in vivo, read-out: Vdss
[5] = Clearance in Sprague-Dawley rat at 1.1 mg/kg, iv administered via bolus injection measured at 2 to 5 mins post dose by LC-MS/MS analysis; format: ADME, organism-based; settings: in vivo
[6] = AUC (0 to infinity) in Sprague-Dawley rat at 1.1 mg/kg, iv administered via bolus injection measured at 2 to 5 mins post dose by LC-MS/MS analysis; format: ADME, organism-based; design: dose 1.1 mg/kg, route intravenous, time infinity; settings: in vivo
[7] = Oral bioavailability in Sprague-Dawley rat at 1.1 mg/kg measured at 15 mins to 24 hrs after drug challenge by LC-MS/MS analysis; format: ADME, organism-based; settings: in vivo
[8] = Half life in Sprague-Dawley rat at 1.1 mg/kg, po by LC-MS/MS analysis; format: ADME, organism-based; settings: in vivo
[9] = Cmax in Sprague-Dawley rat at 1.1 mg/kg, po measured at 15 mins to 24 hrs post dose by LC-MS/MS analysis; format: ADME, organism-based; design: dose 1.1 mg/kg, route oral; settings: in vivo
[10] = AUC (0 to infinity) in Sprague-Dawley rat at 1.1 mg/kg, po measured at 15 mins to 24 hrs post dose by LC-MS/MS analysis; format: ADME, organism-based; design: dose 1.1 mg/kg, time infinity, route oral; settings: in vivo
Rattus norvegicus [11] = test: Effect on glucose AUC in Sprague-Dawley rat at 50 mg/kg, po administered as single dose via oral gavage after 0.5 to 1 hr by oral glucose tolerance test; format: functional, organism-based
[12] = Tmax in Sprague-Dawley rat at 1.1 mg/kg, po measured at 15 mins to 24 hrs post dose by LC-MS/MS analysis; format: ADME, organism-based; settings: in vivo
Rattus norvegicus [13] = test: Reduction of blood glucose level in Sprague-Dawley rat at 50 mg/kg, po administered as single dose via oral gavage after 0.5 to 1 hr by oral glucose tolerance test; format: functional, organism-based
Rattus norvegicus [14] = test: Induction of glucosuria in Sprague-Dawley rat assessed as increase in glucose excretion per 200 g body weight at 50 mg/kg, administered as single dose via oral gavage after 24 hrs by oral glucose tolerance test (reference value: 0.23 mg); format: functional

Compound | EC50 [1] [µM] | other results
COC(=O)c1cn(C[C@H]2O[C@@H](n3cc(Cc4ccc(C5CC5)cc4)c4c(Cl)cccc43)[C@H](O)[C@@H](O)[C@@H]2O)nn1 | 0.119 | 
O=C(NC[C@H]1O[C@@H](n2cc(Cc3ccc(C4CC4)cc3)c3c(Cl)cccc32)[C@H](O)[C@@H](O)[C@@H]1O)c1ccno1 | 0.387 | 
COCCCNC(=S)NC[C@H]1O[C@@H](n2cc(Cc3ccc(C4CC4)cc3)c3c(Cl)cccc32)[C@H](O)[C@@H](O)[C@@H]1O | 0.586 | 
O=C(CCl)NC[C@H]1O[C@@H](n2cc(Cc3ccc(C4CC4)cc3)c3c(Cl)cccc32)[C@H](O)[C@@H](O)[C@@H]1O | 0.113 | 
COC(=O)CC(=O)NC[C@H]1O[C@@H](n2cc(Cc3ccc(C4CC4)cc3)c3c(Cl)cccc32)[C@H](O)[C@@H](O)[C@@H]1O | 0.039 | Activity (Rattus norvegicus [2]): inactive
CCNC(=S)NC[C@H]1O[C@@H](n2cc(Cc3ccc(C4CC4)cc3)c3c(Cl)cccc32)[C@H](O)[C@@H](O)[C@@H]1O | 0.716 | 
OC[C@H]1O[C@@H](n2cc(Cc3ccc(C4CC4)cc3)c3c(Cl)cccc32)[C@H](O)[C@@H](O)[C@@H]1O | 0.014 | Ratio EC50 (CHO-K1): 2
O=C(NC[C@H]1O[C@@H](n2cc(Cc3ccc(C4CC4)cc3)c3c(Cl)cccc32)[C@H](O)[C@@H](O)[C@@H]1O)C(Cl)Cl | 0.184 | 
O[C@@H]1[C@@H](O)[C@H](n2cc(Cc3ccc(C4CC4)cc3)c3c(Cl)cccc32)OC[C@H]1O |  | Ratio EC50 (CHO-K1): 2
CCOC(=O)NC(=O)NC[C@H]1O[C@@H](n2cc(Cc3ccc(C4CC4)cc3)c3c(Cl)cccc32)[C@H](O)[C@@H](O)[C@@H]1O | 1 | 
CNC(=S)NC[C@H]1O[C@@H](n2cc(Cc3ccc(C4CC4)cc3)c3c(Cl)cccc32)[C@H](O)[C@@H](O)[C@@H]1O | 0.315 | 
O[C@@H]1[C@@H](O)[C@H](n2cc(Cc3ccc(C4CC4)cc3)c3c(Cl)cccc32)O[C@H](Cn2cc(C3CC3)nn2)[C@H]1O | 0.359 | 
O=C(O)CC(=O)NC[C@H]1O[C@@H](n2cc(Cc3ccc(C4CC4)cc3)c3c(Cl)cccc32)[C@H](O)[C@@H](O)[C@@H]1O | 3.44 | 
CCOC(=O)CNC(=O)NC[C@H]1O[C@@H](n2cc(Cc3ccc(C4CC4)cc3)c3c(Cl)cccc32)[C@H](O)[C@@H](O)[C@@H]1O | 0.515 | 
CCOC(=O)C(=O)NC[C@H]1O[C@@H](n2cc(Cc3ccc(C4CC4)cc3)c3c(Cl)cccc32)[C@H](O)[C@@H](O)[C@@H]1O | 0.249 | 
O=C(NCCCl)NC[C@H]1O[C@@H](n2cc(Cc3ccc(C4CC4)cc3)c3c(Cl)cccc32)[C@H](O)[C@@H](O)[C@@H]1O | 0.598 | 
COc1ccc(C(=O)NC[C@H]2O[C@@H](n3cc(Cc4ccc(C5CC5)cc4)c4c(Cl)cccc43)[C@H](O)[C@@H](O)[C@@H]2O)cc1 | 2.37 | 
O=C(Cc1cccs1)NC[C@H]1O[C@@H](n2cc(Cc3ccc(C4CC4)cc3)c3c(Cl)cccc32)[C@H](O)[C@@H](O)[C@@H]1O | 0.499 | 

Compound | EC50 [1] [µM] | other results
CCOC(=O)CCC(=O)NC[C@H]1O[C@@H](n2cc(Cc3ccc(C4CC4)cc3)c3c(Cl)cccc32)[C@H](O)[C@@H](O)[C@@H]1O | 0.588 | 
CCOC(=O)CC(=O)NC[C@H]1O[C@@H](n2cc(Cc3ccc(C4CC4)cc3)c3c(Cl)cccc32)[C@H](O)[C@@H](O)[C@@H]1O | 0.118 | 
CCOC(=O)CNC(=S)NC[C@H]1O[C@@H](n2cc(Cc3ccc(C4CC4)cc3)c3c(Cl)cccc32)[C@H](O)[C@@H](O)[C@@H]1O | 0.286 | Ratio EC50 (CHO-K1): 3
CC(C)C(=O)NC[C@H]1O[C@@H](n2cc(Cc3ccc(C4CC4)cc3)c3c(Cl)cccc32)[C@H](O)[C@@H](O)[C@@H]1O | 0.649 | 
COc1ccc(NC(=S)NC[C@H]2O[C@@H](n3cc(Cc4ccc(C5CC5)cc4)c4c(Cl)cccc43)[C@H](O)[C@@H](O)[C@@H]2O)cc1 | 0.485 | 
O=C(CSc1ccccc1)NC[C@H]1O[C@@H](n2cc(Cc3ccc(C4CC4)cc3)c3c(Cl)cccc32)[C@H](O)[C@@H](O)[C@@H]1O | 2.09 | 
CCOc1cn(C[C@H]2O[C@@H](n3cc(Cc4ccc(C5CC5)cc4)c4c(Cl)cccc43)[C@H](O)[C@@H](O)[C@@H]2O)nn1 | 0.655 | 
CC(=O)NC[C@H]1O[C@@H](n2cc(Cc3ccc(C4CC4)cc3)c3c(Cl)cccc32)[C@H](O)[C@@H](O)[C@@H]1O | 0.042 | half-life [3]: 3.2 h; Vd [4]: 2.7 L/kg; clearance [5]: 1.13 L/h/kg; AUC(0-inf) [6]: 0.996 µg·h/mL; bioavailability [7]: 10%; half-life [8]: 2.5 h; Cmax [9]: 0.0252 µg/mL; AUC(0-inf) [10]: 0.099 µg·h/mL; Activity (Rattus norvegicus [11]): inactive; Tmax [12]: 1.2 h; Activity (Rattus norvegicus [13]): Active; Activity (Rattus norvegicus [14]): 101 mg
NC[C@H]1O[C@@H](n2cc(Cc3ccc(C4CC4)cc3)c3c(Cl)cccc32)[C@H](O)[C@@H](O)[C@@H]1O | 0.237 | Ratio EC50 (CHO-K1): 9
O=C(NC[C@H]1O[C@@H](n2cc(Cc3ccc(C4CC4)cc3)c3c(Cl)cccc32)[C@H](O)[C@@H](O)[C@@H]1O)c1ccc(CCl)cc1 | 2.59 | 
O=C(CCCl)NC[C@H]1O[C@@H](n2cc(Cc3ccc(C4CC4)cc3)c3c(Cl)cccc32)[C@H](O)[C@@H](O)[C@@H]1O | 0.16 | 
O[C@@H]1[C@@H](O)[C@H](n2cc(Cc3ccc(C4CC4)cc3)c3c(Cl)cccc32)O[C@H](Cn2cc(C3CCCC3)nn2)[C@H]1O | 1.59 | 
O=C(CCBr)NC[C@H]1O[C@@H](n2cc(Cc3ccc(C4CC4)cc3)c3c(Cl)cccc32)[C@H](O)[C@@H](O)[C@@H]1O | 0.151 | 
O=C(NCCCCl)NC[C@H]1O[C@@H](n2cc(Cc3ccc(C4CC4)cc3)c3c(Cl)cccc32)[C@H](O)[C@@H](O)[C@@H]1O | 0.151 | Ratio EC50 (CHO-K1): 6
COC(=O)C(=O)NC[C@H]1O[C@@H](n2cc(Cc3ccc(C4CC4)cc3)c3c(Cl)cccc32)[C@H](O)[C@@H](O)[C@@H]1O | 0.284 | Ratio EC50 (CHO-K1): 20
O=C(NC[C@H]1O[C@@H](n2cc(Cc3ccc(C4CC4)cc3)c3c(Cl)cccc32)[C@H](O)[C@@H](O)[C@@H]1O)C1CC1 | 0.552 | 
O=C(O)c1cn(C[C@H]2O[C@@H](n3cc(Cc4ccc(C5CC5)cc4)c4c(Cl)cccc43)[C@H](O)[C@@H](O)[C@@H]2O)nn1 | 2.72 | 

— ChEMBL document CHEMBL3784944, “N-Indolylglycosides bearing modifications at the glucose C6-position as sodium-dependent glucose co-transporter 2 inhibitors” (Bioorg Med Chem, 2016)
